{
  "source": "patent US10294237B2",
  "about": "“Bicyclic heterocyclic amide derivative” (Sumitomo Dainippon Pharma Co., Ltd., priority 2015, dated 2019)",
  "key": {"HCT-116 cells [1]": {"test_system": "HCT-116 cells", "test": "Test for inhibiting sphere-forming ability of cancer cells (in the presence of BSA)", "format": "cell-based", "conditions": "HCT-116 spheres, non-adherent, 5% BSA, 4 days, CellTiter-Glo, read-out: IC50 (Sphere IC50 value; concentration for 50% inhibition of cell proliferation)"}, "HCT-116 cells [2]": {"test_system": "HCT-116 cells", "test": "Anti-tumor effect to HCT-116 tumor-bearing mouse", "format": "in vivo", "conditions": "oral, administration period 17 days, nude mouse", "text": "The present compound can be used to evaluate the anti-tumor effect thereof. A 4 to 7-week-old nude mouse (BALB/cAnNCrj-nu/nu, female, CHARLES RIVER LABORATORIES JAPAN, INC.) received intradermal transplantation of HCT-116 cells (ATCC) in an amount of 3×10^6 cells/mouse around the ventral portion. The engraftment of HCT-116 cells was observed 5 to 14 days after the transplantation, and then each compound suspended in a solvent such as 0.5% methylcellulose solution was orally administrated to the mouse in a dose of 1 to 100 mg/kg one to twice daily. The tumor volume was measured over time after the administration to evaluate the effect for reducing the tumor volume by the administration of each compound. The tumor volume can be calculated from the minor axis and the major axis of the tumor measured with a digital caliper (Mitutoyo) according to the following formula: Tumor volume [mm^3]=0.5×minor axis [mm]×(major axis [mm])^2\nThe tumor volume in control administration group treated with only a solvent such as 0.5% methylcellulose solution was compared with that of the present compound administration group, and T/C value was calculated according the following formula to evaluate the anti-tumor effect of the present compound. T/C(%)=(the tumor volume at the end of administration in the present compound administration group−the tumor volume at the start of administration in the present compound administration group)/(the tumor volume at the end of administration in the control administration group−the tumor volume at the start of administration in the control administration group)×100\nThe T/C values (%) of the present compound on each dosage and administration period in the HCT-116 tumor-bearing mouse are shown below."}, "HCT-116 cells [3]": {"test_system": "HCT-116 cells", "test": "Test for inhibiting sphere-forming ability of cancer cells", "format": "cell-based", "conditions": "HCT-116 spheres, non-adherent, serum-free, 4 days, CellTiter-Glo, read-out: IC50 (Sphere IC50 value; concentration for 50% inhibition of cell proliferation)"}},
  "data": [
    {"smiles": "O=C(Nc1cn(Cc2cc(F)c(F)c(F)c2)cn1)c1ccc2c(c1)CCNC2", "note": "[Example 6, N-[1-(3,4,5-trifluorobenzyl)-1H-imidazol-4-yl]-1,2,3,4-tetrahydroisoquinoline-6-carboxamide]", "values": [
      {"measurement": "IC50", "setting": "HCT-116 cells [1]", "result": 50, "unit": "nM"},
      {"measurement": "T/C", "setting": "HCT-116 cells [2]; dosage 30 mg/kg", "result": 73, "unit": "%"},
      {"measurement": "IC50", "setting": "HCT-116 cells [3]", "result": 60, "unit": "nM"}
    ]},
    {"smiles": "O=C(Nc1cc2c(cn1)CNCC2)c1cn(Cc2cc(F)c(F)c(F)c2)cn1", "note": "[Example 3, N-(5,6,7,8-tetrahydro-2,7-naphthyridin-3-yl)-1-(3,4,5-trifluorobenzyl)-1H-imidazole-4-carboxamide]", "values": [
      {"measurement": "IC50", "setting": "HCT-116 cells [1]; Homo sapiens, HCT-116, 96 h", "result": 30, "unit": "nM"},
      {"measurement": "T/C", "setting": "HCT-116 cells [2]; dosage 10 mg/kg", "result": 90, "unit": "%"},
      {"measurement": "T/C", "setting": "HCT-116 cells [2]; dosage 30 mg/kg", "result": 79, "unit": "%"},
      {"measurement": "IC50", "setting": "HCT-116 cells [3]; Homo sapiens, 96 h", "result": 60, "unit": "nM"}
    ]},
    {"smiles": "O=C(Nc1cn(Cc2cccc(C(F)(F)F)c2)cn1)c1ccc2c(n1)CCNC2", "note": "[Example 10, N-{1-[3-(trifluoromethyl)benzyl]-1H-imidazol-4-yl}-5,6,7,8-tetrahydro-1,6-naphthyridine-2-carboxamide]", "values": [
      {"measurement": "IC50", "setting": "HCT-116 cells [1]; Homo sapiens, HCT-116, 96 h", "result": 50, "unit": "nM"},
      {"measurement": "T/C", "setting": "HCT-116 cells [2]; dosage 30 mg/kg", "result": 55, "unit": "%"},
      {"measurement": "T/C", "setting": "HCT-116 cells [2]; dosage 100 mg/kg", "result": 49, "unit": "%"},
      {"measurement": "IC50", "setting": "HCT-116 cells [3]; Homo sapiens, 96 h", "result": 40, "unit": "nM"}
    ]},
    {"smiles": "O=C(Nc1cn(Cc2cc(F)c(F)c(F)c2)cn1)c1ccc2c(n1)CCNC2", "note": "[Example 11, N-[1-(3,4,5-trifluorobenzyl)-1H-imidazol-4-yl]-5,6,7,8-tetrahydro-1,6-naphthyridine-2-carboxamide]", "values": [
      {"measurement": "IC50", "setting": "HCT-116 cells [1]; Homo sapiens, HCT-116, 96 h", "result": 50, "unit": "nM"},
      {"measurement": "T/C", "setting": "HCT-116 cells [2]; dosage 30 mg/kg", "result": 62, "unit": "%"},
      {"measurement": "T/C", "setting": "HCT-116 cells [2]; dosage 100 mg/kg", "result": 46, "unit": "%"},
      {"measurement": "IC50", "setting": "HCT-116 cells [3]; Homo sapiens, 96 h", "result": 50, "unit": "nM"}
    ]},
    {"smiles": "O=C(Nc1cn(Cc2cc(F)c(F)c(F)c2)cn1)c1cc(F)c2c(c1)CCNC2", "note": "[Example 5, 8-fluoro-N-[1-(3,4,5-trifluorobenzyl)-1H-imidazol-4-yl]-1,2,3,4-tetrahydroisoquinoline-6-carboxamide]", "values": [
      {"measurement": "IC50", "setting": "HCT-116 cells [1]; Homo sapiens, HCT-116, 96 h", "result": 60, "unit": "nM"},
      {"measurement": "T/C", "setting": "HCT-116 cells [2]; dosage 30 mg/kg", "result": 71, "unit": "%"},
      {"measurement": "T/C", "setting": "HCT-116 cells [2]; dosage 100 mg/kg", "result": 42, "unit": "%"},
      {"measurement": "IC50", "setting": "HCT-116 cells [3]; Homo sapiens, 96 h", "result": 70, "unit": "nM"}
    ]},
    {"smiles": "O=C(Nc1cn(Cc2cc(F)c(F)c(F)c2)cn1)c1cnc2c(c1)CCNC2", "note": "[Example 12, N-[1-(3,4,5-trifluorobenzyl)-1H-imidazol-4-yl]-5,6,7,8-tetrahydro-1,7-naphthyridine-3-carboxamide]", "values": [
      {"measurement": "IC50", "setting": "HCT-116 cells [1]; Homo sapiens, HCT-116, 96 h", "result": 60, "unit": "nM"},
      {"measurement": "T/C", "setting": "HCT-116 cells [2]; dosage 30 mg/kg", "result": 79, "unit": "%"},
      {"measurement": "T/C", "setting": "HCT-116 cells [2]; dosage 100 mg/kg", "result": 73, "unit": "%"},
      {"measurement": "IC50", "setting": "HCT-116 cells [3]; Homo sapiens, 96 h", "result": 70, "unit": "nM"}
    ]},
    {"smiles": "O=C(Nc1cn(Cc2cccc(C(F)(F)F)c2)cn1)c1cnc2c(c1)CCNC2", "note": "[Example 13, N-{1-[3-(trifluoromethyl)benzyl]-1H-imidazol-4-yl}-5,6,7,8-tetrahydro-1,7-naphthyridine-3-carboxamide]", "values": [
      {"measurement": "IC50", "setting": "HCT-116 cells [1]; Homo sapiens, HCT-116, 96 h", "result": 60, "unit": "nM"},
      {"measurement": "T/C", "setting": "HCT-116 cells [2]; dosage 30 mg/kg", "result": 62, "unit": "%"},
      {"measurement": "T/C", "setting": "HCT-116 cells [2]; dosage 100 mg/kg", "result": 59, "unit": "%"},
      {"measurement": "IC50", "setting": "HCT-116 cells [3]; Homo sapiens, 96 h", "result": 30, "unit": "nM"}
    ]}
  ]
}
